Measured values reported in patent publication US20100222340A1, “SUBSTITUTED PYRIDO [1,2-a] ISOQUINOLINE DERIVATIVES” (priority 2004, published 2010).
Where a name gives a salt, the structure may show the parent alone.

target: T1, human DPP-IV (Homo sapiens, UniProt P27487); assay: DPP-IV activity assay (fluorogenic / colorimetric), IC50 determination; format: biochemical; details: natural human DPP-IV from human plasma pool or recombinant human DPP-IV; 37° C., pH 7.8
T1 construct: made in house; host or cells: Pichia pastoris
Protocol: Activity of DPP-IV inhibitors are tested with natural human DPP-IV derived from a human plasma pool or with recombinant human DPP-IV. Human citrate plasma from different donors is pooled, filtered through a 0.2 micron membrane under sterile conditions and aliquots of 1 ml are shock frozen and stored at −120° C. until used. In the colorimetric DPP-IV assay 5 to 10 μl human plasma and in the fluorometric assay 1.0 μl of human plasma in a total assay volume of 100 μl is used as an enzyme source. The cDNA of the human DPP-IV sequence of amino acid 31- to 766, restricted for the N-terminus and the transmembrane domain, is cloned into Pichia pastoris. Human DPP-IV is expressed and purified from the culture medium using conventional column chromatography including size exclusion and anion and cation chromatography. The purity of the final enzyme preparation of Coomassie blue SDS-PAGE is >95%. In the colorimetric DPP-IV assay 20 ng rec.-h DPP-IV and in the fluorometric assay 2 ng rec-h DPP-IV in a total assay volume of 100 μl is used as an enzyme source.
In the fluorogenic assay Ala-Pro-7-amido-4-trifluoromethylcoumarin (Calbiochem No 125510) is used as a substrate. A 20 mM stock solution in 10% DMF/H2O is stored at −20° C. until use. […]
Fluorescence is detected in a Perkin Elmer Luminescence Spectrometer LS 50B at an excitation wavelength of 400 nm and an emission wavelength of 505 nm continuously every 15 seconds for 10 to 30 minutes. Initial rate constants are calculated by best fit linear regression. The absorption of pNA liberated from the colorimetric substrate is detected in a Packard SpectraCount at 405 nm continuously every 2 minutes for 30 to 120 minutes. Initial rate constants are calculated by best fit linear regression. […]
IC50 determinations of test compounds are calculated by non-linear best fit regression of the DPP-IV inhibition of at least 5 different compound concentrations. Kinetic parameters of the enzyme reaction are calculated at least 5 different substrate concentrations and at least 5 different test compound concentrations.

T1 sequence (P27487 31-766): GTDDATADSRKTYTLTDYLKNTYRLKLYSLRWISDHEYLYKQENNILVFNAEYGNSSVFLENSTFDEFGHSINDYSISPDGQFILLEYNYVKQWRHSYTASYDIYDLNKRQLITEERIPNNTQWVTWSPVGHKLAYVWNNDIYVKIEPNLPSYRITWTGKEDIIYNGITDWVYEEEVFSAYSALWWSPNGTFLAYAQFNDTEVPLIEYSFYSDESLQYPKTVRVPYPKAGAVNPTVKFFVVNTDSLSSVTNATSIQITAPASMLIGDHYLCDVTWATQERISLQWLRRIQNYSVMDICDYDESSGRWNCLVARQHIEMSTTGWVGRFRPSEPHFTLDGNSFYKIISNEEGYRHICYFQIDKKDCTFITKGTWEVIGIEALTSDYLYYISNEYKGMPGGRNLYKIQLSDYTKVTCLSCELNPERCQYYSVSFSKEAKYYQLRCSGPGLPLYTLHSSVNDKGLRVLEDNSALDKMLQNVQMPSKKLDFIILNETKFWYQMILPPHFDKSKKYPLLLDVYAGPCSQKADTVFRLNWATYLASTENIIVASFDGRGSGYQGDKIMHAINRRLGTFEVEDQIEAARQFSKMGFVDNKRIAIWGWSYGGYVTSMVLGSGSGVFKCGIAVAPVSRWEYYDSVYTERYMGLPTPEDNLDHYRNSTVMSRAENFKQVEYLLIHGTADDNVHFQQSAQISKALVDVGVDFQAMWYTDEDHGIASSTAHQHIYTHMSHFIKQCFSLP

IC50	SMILES
0.3 nM	COc1ccc2c(c1OCC(=O)N(C)C)CCN1C[C@H](c3cccc(C)c3)[C@@H](N)C[C@@H]21 (racemic) [Example 48, rac-2-((2S,3S,11bS)-2-Amino-9-methoxy-3-m-tolyl-1,3,4,6,7,11b-hexahydro-2H-pyrido[2,1-a]isoquinolin-8-yloxy)-N,N-dimethyl-acetamide]
1.1 nM	COc1cc2c(cc1OCC(=O)Nc1nn[nH]n1)CCN1C[C@H](c3cc(C)ccn3)[C@@H](N)C[C@@H]21 (racemic) [Example 13, (2S,3S,11bS)- and (2R,3R,11bR)-2-[2-Amino-10-methoxy-3-(4-methyl-pyridin-2-yl)-1,3,4,6,7,11b-hexahydro-2H-pyrido[2,1-a]isoquinolin-9-yloxy]-N-(2H-tetrazol-5-yl)-acetamide hydrochloride]
0.1 nM	COc1cc2c(cc1OCC(N)=O)CCN1C[C@H](c3cc(C)ccc3C)[C@@H](N)C[C@@H]21 (racemic) [Example 8, (2S,3S,11bS)- and (2R,3R,11bR)-2-[2-Amino-3-(2,5-dimethyl-phenyl)-10-methoxy-1,3,4,6,7,11b-hexahydro-2H-pyrido[2,1-a]isoquinolin-9-yloxy]-acetamide, hydrochloride]
